Measured values reported in patent US11661437B2, “Steroid derivative regulators, method for preparing the same, and uses thereof” (priority 2018, dated 2023).

Assays:
GABA-A receptor = assay: 35S-TBPS binding assay on rat cerebral cortex cell membrane; parameters: species or system Sprague-Dawley rat; details: 2 nM 35S-TBPS, GABA added, read-out: 35S-TBPS bindng test, IC50 on inhibiting the TBPS binding activity
Outline: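 Male Sprague-Dawley rat cortical membranes in PBS were preincubated 5 min at 25 °C with compound (8-point 3-fold series […], 1% DMSO), then with GABA ([…]). 2 nM 35S-TBPS was added for 20 h at 4 °C, followed by GF/C filtration and scintillation counting. % inhibition was normalised to DMSO and 10 μM reference controls, with IC50 from a 4-parameter fit.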

[1] = Pharmacokinetic assay in Balb/c mice (plasma and brain tissue); format: in vivo; details: male, Balb/c, mouse, in vivo, po, 5 mg/kg; for AUC(0-t): Area under curve AUC0-t; for AUC(0-inf): Area under curve AUC0-∞; for half-life: Half-life t1/2; for MRT: Mean residence time MRT; for Tmax: Peak time tmax; for Cmax: Plasma concentration Cmax
Description: Balb/c mice were used as test animals. The pharmacokinetic behavior in mice (plasma and brain tissue) of the compounds of Example 2, Example 5, Example 7, Example 12, Example 18, Example 23, Example 26, Example 38, Example 41, Example 50, Example 51 and Example 66 orally administrated at a dose of 5 mg/kg was studied.
Each group had 24 male Balb/c mice. After an overnight fast, Balb/c mice were administrated p.o. with the test compound at an administration dose of 5 mg/kg and an administration volume of 10 mL/kg.
0.2 ml of blood was taken from the heart before administration and at 0, 0.5, 1, 2, 4, 6, 8 and 24 hours after administration. The samples were stored in EDTA-K2 tubes, and centrifuged for 6 minutes at 4° C., 6000 rpm to separate the plasma. The plasma samples were stored at −80° C. The mice were sacrificed with CO2, and the whole brain tissue was taken out, weighed, placed in a 2 mL centrifuge tube and stored at −80° C.
1) 160 μL of acetonitrile was added to 40 μL of the plasma sample for precipitation, and then the mixture was centrifuged for 5-20 minutes at 3500×g.
2) 90 μL of acetonitrile containing the internal standard (100 ng/mL) was added to 30 μL of the plasma and brain homogenate samples for precipitation, and then the mixture was centrifuged for 8 minutes at 13000 rpm.
3) 70 μL of the treated supernatant was taken and added to 70 μL of water, and mixed by vortex for 10 minutes. 20 μL of the mixture was taken to analyze the concentration of the test compound by LC/MS/MS. LC/MS/MS analysis instrument: AB Sciex API 4000 Qtrap.
2.6 Liquid Chromatography Analysis • Liquid chromatography condition: Shimadzu LC-20AD pump. • Chromatographic column: Agilent ZORBAX XDB-C18 (50×2.1 mm, 3.5 μm); Mobile phase: Eluent A was 0.1% formic acid in water, and Eluent B was acetonitrile. • Flow rate: 0.4 mL/min • Elution time: 0-4.0 minutes the eluent is as follows:
The main parameters of pharmacokinetics were calculated by WinNonlin 6.1.

ICR mice = assay: In vivo pharmacodynamic test in the forced swimming model in mice; details: for Mean (immobility, %) / Mean (immobility, s): 10 mpk p.o.; for Mean (immobility, %): floating time percentage = 100*floating time/240 s; for Mean (immobility, s): latter four minutes of 6 min swim
Description: The antidepressant effect of the compound was evaluated by the forced swimming model in mice.
Male ICR mice (25-35 g) were adapted in the test environment for 3 days before the forced swimming test.
According to the test design, the mice were randomly grouped on the day before the test according to body weight, with 12 mice in each group. Before the test, the compounds of each example were administrated intragastrically according to the Tmax thereof in the brain in mice pharmacokinetic test as follows:
1) Model group (0.5% CMC-Na+1% Tween 80 solution, p.o., 10 mL/kg);
2) Compounds of Example 2, Example 5, Example 7, Example 18, Example 23, Example 26 and Example 50 (10 mg/kg, p.o., 10 mL/kg).
When being administrated, the compounds of each example were suspended in 0.5% CMC-Na-1% Tween 80 solution to the desired concentration.
0.5-1 hour after administration, ICR mice were placed in a forced swimming device (transparent glass drum (water depth 18 cm, water temperature 25-26° C.), one mouse per tank) and forced to swim for 6 minutes. The forced swimming device recorded the floating time of the ICR mice during the entire 6 minutes, and the data of the latter four minutes were used for data analysis. The mice were taken out immediately after the swimming test, wiped dry and put back in their original cages.
Note: The criterion for determining the immobility time is that the mouse stops struggling in water and floats, and there are only slight limb movements to keep the head floating on the water.
3.4 Data Analysis Floating time percentage=100*floating time/240 s.

C[C@@]1(O)CC[C@]2(F)C3CC[C@]4(C)[C@@H](C(=O)CNc5ccc(F)cc5F)CC[C@H]4[C@@H]3CC[C@@H]2C1 (stereo partly drawn) [Example 26, 2-((2,4-Difluorophenyl)amino)-1-((3R,5R,8S,10R,13S,14S,17S)-10-fluoro-3-hydroxy-3,13-dimethylhexadecahydro-1H-cyclopenta[a]phenanthren-17-yl)ethan-1-one]
IC50 (GABA-A receptor): 0.0105 µM
Area under curve AUC0-t [1]: 0.7229 µg·h/mL
Area under curve AUC0-∞ [1]: 0.8284 µg·h/mL
Half-life t1/2 [1]: 2.06 h
Mean residence time MRT [1]: 3.84 h
Plasma concentration Cmax [1]: 0.1723 µg/mL
AUC(0-t) [1]: 0.767 µg·h/mL
AUC(0-inf) [1]: 0.771 µg·h/mL
half-life [1]: 2.57 h
MRT [1]: 4.08 h
Tmax [1]: 0.5 h
Cmax [1]: 0.232 µg/mL
Mean (immobility, %) (ICR mice): 53.46%
Mean (immobility, s) (ICR mice): 128.30 s

C[C@@]1(O)CC[C@@]2(F)[C@H](CC[C@H]3[C@@H]4CC[C@H](C(=O)Cn5nc6ccc(F)cc6n5)[C@@]4(C)CC[C@@H]32)C1 [Example 18, 2-(5-Fluoro-2H-benzo[d][1,2,3]triazol-2-yl)-1-((3R,5R,8S,9S,10R,13S,14S,17S)-10-fluoro-3-hydroxy-3,13-dimethylhexadecahydro-1H-cyclopenta[a]phenanthren-17-yl)ethan-1-one]
IC50 (GABA-A receptor): 0.01 µM
Area under curve AUC0-t [1]: 2.1411 µg·h/mL
Area under curve AUC0-∞ [1]: 2.1868 µg·h/mL
Half-life t1/2 [1]: 4.7 h
Mean residence time MRT [1]: 6.1 h
Plasma concentration Cmax [1]: 0.2817 µg/mL
AUC(0-t) [1]: 1.52 µg·h/mL
AUC(0-inf) [1]: 1.54 µg·h/mL
half-life [1]: 4.2 h
MRT [1]: 5.5 h
Tmax [1]: 1 h
Cmax [1]: 0.236 µg/mL
Mean (immobility, %) (ICR mice): 61.19%
Mean (immobility, s) (ICR mice): 146.86 s

C[C@@]1(O)CC[C@@]2(F)[C@H](CC[C@H]3[C@@H]4CC[C@H](C(=O)Cn5nc(C#N)cc5C#N)[C@@]4(C)CC[C@@H]32)C1 [Example 50, 1-(2-((3R,5R,8S,9S,10R,13S,14S,17S)-10-Fluoro-3-hydroxy-3,13-dimethylhexadecahydro-1H-cyclopenta[a]phenanthren-17-yl)-2-oxoethyl)-1H-pyrazole-3,5-dicarbonitrile]
IC50 (GABA-A receptor): 0.0125 µM
Half-life t1/2 [1]: 1.10 h
Mean residence time MRT [1]: 2.48 h
half-life [1]: 1.11 h
MRT [1]: 2.36 h
Tmax [1]: 1 h
immobility time during the latter four minutes compared with that of the model group (ICR mice; 10 mg/kg p.o.): very significantly different
Mean (immobility, %) (ICR mice): 42.11%
Mean (immobility, s) (ICR mice): 101.07 s
